Source: ChEMBL document CHEMBL5465560, “Selectivity Literature for EUbOPEN Chemogenomic Library” (2024)

Key:
[1] = biological target: T1, Serine/threonine-protein kinase 3 (Homo sapiens) (UniProt Q13188); experiment: Selectivity interaction (Kinase panel (DSF assay)) EUB0001558a STK3
T1 sequence (whole entry): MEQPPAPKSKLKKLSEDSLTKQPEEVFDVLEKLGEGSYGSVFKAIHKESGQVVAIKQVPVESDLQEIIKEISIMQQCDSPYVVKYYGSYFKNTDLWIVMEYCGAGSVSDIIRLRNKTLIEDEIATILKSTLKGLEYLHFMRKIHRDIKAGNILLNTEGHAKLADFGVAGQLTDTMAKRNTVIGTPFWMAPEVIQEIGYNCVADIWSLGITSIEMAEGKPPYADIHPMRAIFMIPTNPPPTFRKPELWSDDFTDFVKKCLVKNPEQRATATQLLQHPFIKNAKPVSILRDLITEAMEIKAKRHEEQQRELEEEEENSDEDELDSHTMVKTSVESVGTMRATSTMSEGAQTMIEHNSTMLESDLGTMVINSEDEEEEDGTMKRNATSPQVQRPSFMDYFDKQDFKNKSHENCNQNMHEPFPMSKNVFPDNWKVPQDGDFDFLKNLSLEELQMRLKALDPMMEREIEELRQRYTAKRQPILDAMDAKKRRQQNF

[2] = biological target: T2, Hormonally up-regulated neu tumor-associated kinase (Homo sapiens) (UniProt P57058); experiment: Selectivity interaction (KinomeScan (DiscoverX)) EUB0000092b HUNK; conditions: at 10 µM
T2 sequence (whole entry): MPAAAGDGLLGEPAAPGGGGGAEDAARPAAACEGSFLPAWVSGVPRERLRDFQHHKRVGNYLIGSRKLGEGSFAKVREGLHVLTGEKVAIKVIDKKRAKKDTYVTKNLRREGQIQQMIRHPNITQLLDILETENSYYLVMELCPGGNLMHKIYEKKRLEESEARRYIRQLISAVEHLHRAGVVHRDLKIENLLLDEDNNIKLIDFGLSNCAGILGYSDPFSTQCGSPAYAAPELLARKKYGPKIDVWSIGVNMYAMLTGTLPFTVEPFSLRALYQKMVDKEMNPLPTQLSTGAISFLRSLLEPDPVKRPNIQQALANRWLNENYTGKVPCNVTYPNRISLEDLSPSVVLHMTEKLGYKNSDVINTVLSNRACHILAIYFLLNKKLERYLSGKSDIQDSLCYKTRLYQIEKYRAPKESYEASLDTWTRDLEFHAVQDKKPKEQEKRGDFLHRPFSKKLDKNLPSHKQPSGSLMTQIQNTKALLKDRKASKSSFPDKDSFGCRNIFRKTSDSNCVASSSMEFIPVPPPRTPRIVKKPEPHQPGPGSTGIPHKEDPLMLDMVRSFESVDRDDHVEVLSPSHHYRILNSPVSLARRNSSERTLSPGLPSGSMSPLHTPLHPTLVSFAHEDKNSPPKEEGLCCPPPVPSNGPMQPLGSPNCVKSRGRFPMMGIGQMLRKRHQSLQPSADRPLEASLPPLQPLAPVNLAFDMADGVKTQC

[3] = biological target: T3, Mitogen-activated protein kinase kinase kinase kinase 2 (Homo sapiens) (UniProt Q12851); experiment: Selectivity interaction (KinomeScan (DiscoverX)) EUB0000655a MAP4K2; conditions: at 10 µM
T3 sequence (whole entry): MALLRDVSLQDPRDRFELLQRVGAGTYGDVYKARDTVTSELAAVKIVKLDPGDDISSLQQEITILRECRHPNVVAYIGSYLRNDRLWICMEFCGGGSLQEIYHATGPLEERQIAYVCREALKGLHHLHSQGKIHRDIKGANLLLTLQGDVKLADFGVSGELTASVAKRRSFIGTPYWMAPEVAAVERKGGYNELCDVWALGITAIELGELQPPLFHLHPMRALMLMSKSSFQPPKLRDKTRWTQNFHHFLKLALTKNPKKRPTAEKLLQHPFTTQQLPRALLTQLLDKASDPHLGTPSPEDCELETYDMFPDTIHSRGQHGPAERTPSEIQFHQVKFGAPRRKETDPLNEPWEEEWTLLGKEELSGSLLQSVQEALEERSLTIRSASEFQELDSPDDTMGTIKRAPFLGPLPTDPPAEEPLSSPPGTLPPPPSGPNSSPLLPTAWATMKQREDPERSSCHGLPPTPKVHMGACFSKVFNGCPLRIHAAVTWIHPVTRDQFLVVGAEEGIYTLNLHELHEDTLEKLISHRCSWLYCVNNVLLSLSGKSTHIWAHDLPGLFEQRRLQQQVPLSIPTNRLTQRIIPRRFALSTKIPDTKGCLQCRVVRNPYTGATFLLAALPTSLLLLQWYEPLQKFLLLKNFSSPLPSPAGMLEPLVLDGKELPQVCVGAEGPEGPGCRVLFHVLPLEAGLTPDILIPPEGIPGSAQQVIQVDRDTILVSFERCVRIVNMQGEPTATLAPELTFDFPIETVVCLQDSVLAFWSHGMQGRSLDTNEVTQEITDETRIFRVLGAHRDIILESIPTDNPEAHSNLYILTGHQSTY

[4] = biological target: T4, Alpha-2C adrenergic receptor (Homo sapiens) (UniProt P18825); experiment: Selectivity interaction (Panel of kinases, GPCRs, ion channels and transporters (enzymatic assay)) EUB0000266bCl ADRA2C
T4 sequence (whole entry): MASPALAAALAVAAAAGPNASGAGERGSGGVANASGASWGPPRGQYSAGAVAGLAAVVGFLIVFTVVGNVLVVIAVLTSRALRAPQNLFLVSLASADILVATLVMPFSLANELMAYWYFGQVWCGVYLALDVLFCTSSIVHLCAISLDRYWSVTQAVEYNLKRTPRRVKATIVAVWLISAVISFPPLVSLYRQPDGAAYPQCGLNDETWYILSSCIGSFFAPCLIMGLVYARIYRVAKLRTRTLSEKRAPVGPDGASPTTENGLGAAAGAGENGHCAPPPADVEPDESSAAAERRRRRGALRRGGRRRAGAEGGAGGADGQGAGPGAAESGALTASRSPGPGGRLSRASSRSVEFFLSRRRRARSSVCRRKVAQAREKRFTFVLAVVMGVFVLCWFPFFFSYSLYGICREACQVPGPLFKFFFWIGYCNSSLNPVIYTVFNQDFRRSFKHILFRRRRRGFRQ

[5] = biological target: Tyrosine-protein kinase HCK (Homo sapiens) (UniProt P08631); experiment: Selectivity interaction (Kinase panel (Invitrogen)) EUB0000639a HCK; conditions: at 200 nM
[6] = biological target: Myosin light chain kinase, smooth muscle (Homo sapiens, UniProt Q15746); experiment: Selectivity interaction (KinomeScan (DiscoverX)) EUB0000595a MYLK; conditions: at 10 µM
[7] = biological target: Serine/threonine-protein kinase 16 (Homo sapiens, UniProt O75716); experiment: Selectivity interaction (KinomeScan (DiscoverX)) EUB0000618a STK16; conditions: at 10 µM
[8] = biological target: Type-2 angiotensin II receptor (Homo sapiens) (UniProt P50052); experiment: Selectivity interaction (Eurofins CEREP Diversity Profile (receptors and ion channels)) EUB0000279b AGTR2; conditions: at 10 µM
[9] = biological target: Epithelial discoidin domain-containing receptor 1 (Homo sapiens) (UniProt Q08345); experiment: Selectivity interaction (Ambit KINOMEscan and KiNATiv profiling in Jurkat cells) EUB0000090b DDR1; format: cell-based; conditions: at 1 µM
Chain of Epithelial discoidin domain-containing receptor 1 (Homo sapiens) (Q08345 whole entry, the tested form may be a part): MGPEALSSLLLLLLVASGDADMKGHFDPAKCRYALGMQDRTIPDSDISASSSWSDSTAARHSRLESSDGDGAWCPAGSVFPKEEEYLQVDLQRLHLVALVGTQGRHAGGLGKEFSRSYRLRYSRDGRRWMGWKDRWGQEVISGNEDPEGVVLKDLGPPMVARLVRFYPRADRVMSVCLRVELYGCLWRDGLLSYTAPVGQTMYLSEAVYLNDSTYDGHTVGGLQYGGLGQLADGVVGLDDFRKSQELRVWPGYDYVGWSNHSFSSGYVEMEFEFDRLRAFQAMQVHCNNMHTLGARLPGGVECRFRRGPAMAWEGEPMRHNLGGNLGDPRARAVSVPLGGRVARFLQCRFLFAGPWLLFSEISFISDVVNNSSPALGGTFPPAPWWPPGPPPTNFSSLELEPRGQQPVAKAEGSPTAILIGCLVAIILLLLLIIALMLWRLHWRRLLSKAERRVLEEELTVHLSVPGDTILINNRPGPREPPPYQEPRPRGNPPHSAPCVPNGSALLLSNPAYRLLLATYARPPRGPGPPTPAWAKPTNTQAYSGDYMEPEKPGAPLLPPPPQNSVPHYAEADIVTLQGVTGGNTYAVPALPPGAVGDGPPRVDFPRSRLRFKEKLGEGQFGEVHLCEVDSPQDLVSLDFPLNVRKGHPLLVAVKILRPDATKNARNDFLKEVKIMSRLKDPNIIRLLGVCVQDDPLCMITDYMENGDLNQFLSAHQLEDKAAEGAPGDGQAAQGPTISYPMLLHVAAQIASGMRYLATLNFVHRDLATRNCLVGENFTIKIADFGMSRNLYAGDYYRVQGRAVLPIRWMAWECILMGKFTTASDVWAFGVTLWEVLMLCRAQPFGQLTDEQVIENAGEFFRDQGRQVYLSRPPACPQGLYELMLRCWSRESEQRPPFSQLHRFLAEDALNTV

Chain of Tyrosine-protein kinase HCK (Homo sapiens) (P08631 2-526 limits assumed): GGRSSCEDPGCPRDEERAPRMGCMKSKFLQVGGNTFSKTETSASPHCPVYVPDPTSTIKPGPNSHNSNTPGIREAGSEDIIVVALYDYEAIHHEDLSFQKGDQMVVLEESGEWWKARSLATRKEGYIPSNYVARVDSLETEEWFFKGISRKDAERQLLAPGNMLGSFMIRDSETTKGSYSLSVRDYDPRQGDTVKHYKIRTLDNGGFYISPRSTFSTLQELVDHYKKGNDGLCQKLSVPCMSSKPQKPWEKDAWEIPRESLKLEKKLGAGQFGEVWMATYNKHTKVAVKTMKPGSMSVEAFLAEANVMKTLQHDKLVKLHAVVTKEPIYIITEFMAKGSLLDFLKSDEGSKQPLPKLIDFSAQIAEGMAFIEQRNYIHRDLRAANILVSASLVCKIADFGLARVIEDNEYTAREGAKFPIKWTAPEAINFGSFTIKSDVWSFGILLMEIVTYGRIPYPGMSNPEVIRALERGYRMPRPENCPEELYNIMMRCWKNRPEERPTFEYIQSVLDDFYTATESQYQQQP
Chain of Type-2 angiotensin II receptor (Homo sapiens) (P50052 whole entry, the tested form may be a part): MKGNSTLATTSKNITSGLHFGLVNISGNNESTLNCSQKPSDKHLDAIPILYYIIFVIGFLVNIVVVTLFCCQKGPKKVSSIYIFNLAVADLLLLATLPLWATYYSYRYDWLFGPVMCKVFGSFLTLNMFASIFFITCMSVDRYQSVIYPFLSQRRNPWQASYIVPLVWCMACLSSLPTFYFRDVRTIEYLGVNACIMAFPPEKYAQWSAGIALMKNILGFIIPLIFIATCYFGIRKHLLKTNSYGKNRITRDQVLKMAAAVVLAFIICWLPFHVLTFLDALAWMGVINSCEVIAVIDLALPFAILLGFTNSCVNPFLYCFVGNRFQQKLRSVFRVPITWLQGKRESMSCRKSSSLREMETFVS
Chain of Serine/threonine-protein kinase 16 (O75716 whole entry): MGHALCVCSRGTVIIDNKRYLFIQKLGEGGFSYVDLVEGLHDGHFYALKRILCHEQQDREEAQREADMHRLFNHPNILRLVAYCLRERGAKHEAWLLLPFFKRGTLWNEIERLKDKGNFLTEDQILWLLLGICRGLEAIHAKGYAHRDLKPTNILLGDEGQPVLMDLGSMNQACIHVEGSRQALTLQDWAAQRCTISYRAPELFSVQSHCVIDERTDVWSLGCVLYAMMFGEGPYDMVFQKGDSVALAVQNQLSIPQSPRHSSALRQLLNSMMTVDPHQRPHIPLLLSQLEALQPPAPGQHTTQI
Chain of Myosin light chain kinase, smooth muscle (Q15746 whole entry): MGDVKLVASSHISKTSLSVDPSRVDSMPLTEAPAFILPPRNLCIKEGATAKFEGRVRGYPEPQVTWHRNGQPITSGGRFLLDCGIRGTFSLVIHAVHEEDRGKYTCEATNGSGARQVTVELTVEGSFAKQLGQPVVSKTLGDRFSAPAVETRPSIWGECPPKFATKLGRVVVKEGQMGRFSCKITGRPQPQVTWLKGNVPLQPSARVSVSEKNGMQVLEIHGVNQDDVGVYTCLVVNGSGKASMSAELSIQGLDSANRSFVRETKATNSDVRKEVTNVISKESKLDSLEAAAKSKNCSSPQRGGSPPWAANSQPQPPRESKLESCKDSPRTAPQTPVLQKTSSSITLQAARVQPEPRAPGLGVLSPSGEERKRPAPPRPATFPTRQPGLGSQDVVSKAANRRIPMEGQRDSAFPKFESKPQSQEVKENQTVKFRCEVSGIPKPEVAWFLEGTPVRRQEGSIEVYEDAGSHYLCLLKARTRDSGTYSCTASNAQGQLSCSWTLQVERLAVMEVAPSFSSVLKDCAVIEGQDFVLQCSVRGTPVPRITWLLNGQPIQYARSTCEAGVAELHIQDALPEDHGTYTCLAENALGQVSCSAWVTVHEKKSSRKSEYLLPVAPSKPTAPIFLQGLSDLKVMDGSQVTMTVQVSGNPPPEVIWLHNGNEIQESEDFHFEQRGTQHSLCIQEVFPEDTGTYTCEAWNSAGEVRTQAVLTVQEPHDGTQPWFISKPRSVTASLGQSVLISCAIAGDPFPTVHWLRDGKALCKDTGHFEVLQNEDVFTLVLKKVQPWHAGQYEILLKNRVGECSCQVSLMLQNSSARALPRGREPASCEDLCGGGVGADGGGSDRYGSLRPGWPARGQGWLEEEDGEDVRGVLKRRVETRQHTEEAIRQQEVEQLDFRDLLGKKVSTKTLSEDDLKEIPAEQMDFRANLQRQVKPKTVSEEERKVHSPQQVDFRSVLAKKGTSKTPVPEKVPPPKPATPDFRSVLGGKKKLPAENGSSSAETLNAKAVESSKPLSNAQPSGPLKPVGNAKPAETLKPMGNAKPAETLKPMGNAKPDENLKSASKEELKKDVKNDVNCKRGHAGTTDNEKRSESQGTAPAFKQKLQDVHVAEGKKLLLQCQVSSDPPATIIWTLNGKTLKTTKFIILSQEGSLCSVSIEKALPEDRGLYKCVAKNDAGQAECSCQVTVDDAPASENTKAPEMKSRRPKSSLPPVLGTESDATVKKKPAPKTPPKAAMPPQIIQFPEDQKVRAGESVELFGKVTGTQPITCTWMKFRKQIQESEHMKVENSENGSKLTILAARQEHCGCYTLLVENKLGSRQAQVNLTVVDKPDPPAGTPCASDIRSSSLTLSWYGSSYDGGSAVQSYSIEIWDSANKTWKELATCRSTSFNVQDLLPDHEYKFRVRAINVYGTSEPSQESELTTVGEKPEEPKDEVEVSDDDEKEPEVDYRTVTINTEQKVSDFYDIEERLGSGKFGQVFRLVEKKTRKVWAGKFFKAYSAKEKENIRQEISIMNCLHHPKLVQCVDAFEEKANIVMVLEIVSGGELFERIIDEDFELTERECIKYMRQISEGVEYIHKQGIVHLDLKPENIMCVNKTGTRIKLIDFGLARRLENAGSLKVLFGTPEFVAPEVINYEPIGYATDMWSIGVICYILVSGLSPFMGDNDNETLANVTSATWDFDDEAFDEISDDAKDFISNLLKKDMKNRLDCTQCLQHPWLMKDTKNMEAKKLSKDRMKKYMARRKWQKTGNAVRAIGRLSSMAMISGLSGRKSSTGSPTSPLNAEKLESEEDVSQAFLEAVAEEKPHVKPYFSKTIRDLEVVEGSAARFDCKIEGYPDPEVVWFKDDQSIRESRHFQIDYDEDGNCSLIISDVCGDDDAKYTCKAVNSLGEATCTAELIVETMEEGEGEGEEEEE

Structure (SMILES): CC(C)(O)[C@H](F)CN1Cc2cc(NC(=O)c3cnn4cccnc34)c(N3CCOCC3)cc2C1=O
- dTM [1]: 2.1 K

Structure (SMILES): CCC(=O)N1CCN(c2ccc(-n3c(=O)ccc4cnc5ccc(-c6cnc7ccccc7c6)cc5c43)cc2C(F)(F)F)CC1
- % of control [2]: 91%

Structure (SMILES): CN(C)CCOc1ccc(-c2nc(-c3ccncc3)c(-c3ccc4c(c3)CC/C4=N\O)[nH]2)cc1
- % of control [3]: 74%

Structure (SMILES): CCn1c(-c2nc3cc(C(=O)N4CCCC(N)C4)ccc3n2C)cc2ccccc21 (centres undefined)
- pXC50 [4]: < 4.5 M

Structure (SMILES): CC[C@@H]1[C@H](F)C(=O)N[C@@H]1COc1nccc2cc(C(N)=O)c(OC)cc12 [ZIMLOVISERTIB]
- % of inhibition [5]: 4.23%

Structure (SMILES): COCC(=O)NC/C=C/c1ccc2ncnc(Nc3ccc(Oc4ccc(C)nc4)c(C)c3)c2c1 [CP-724714]
- % of control [6]: 87%

Structure (SMILES): O[C@H]1CC[C@H](Nc2ncc3nc(Nc4c(F)cc(F)cc4F)n([C@H]4CCOC4)c3n2)CC1
- % of control [7]: 60%

Structure (SMILES): CC(=O)c1cc(-c2ccccc2OCC2CC2)c2ncccn12
- % of control [8]: 106%

Structure (SMILES): CN(C)C/C=C/C(=O)Nc1ccc(C(=O)N2CCCC(Nc3ncc(Cl)c(-c4c[nH]c5ccccc45)n3)C2)cc1 (centres undefined)
- % of control [9]: 93%
